Data as given in US20090326003A1, “PYRAZOLO (3, 4-B) PYRIDINE DERIVATIVES AS PDE4 INHIBITORS” (priority 2006, published 2009).

Test system: TNF-α production in human PBMC (peripheral blood mononuclear cells)
Assay: Inhibition of TNF-alpha production in human PBMC (MSD technology)
Format: cell-based
Conditions: inhibition of LPS-stimulated TNF-α production in human PBMC; measured and/or mean; read-out: PBMC pIC50 (MSD assay) (converted)
Experimental: A 96-well plate (96 MicroWell™ Plates Nunclon™Δ-High Flange Design, Fisher Scientific UK, Bishop Meadow Road, Loughborough LE 11 5 RG, Leicestershire, UK) is prepared by initially adding to column 1 ca. 10 mM of test compound dissolved in DMSO. […] The compound is further diluted with DMSO into columns 2 to 9 by 8 successive 3fold dilutions using the Biomek® FX Laboratory Automation Workstation (Beckman Coulter, Inc., 4300 N. Harbor Boulevard, P.O. Box 3100, Fullerton, Calif. 92834-3100 USA). Column 10 is used as a DMSO negative control (High Signal, 0% response), whilst column 11, which contains 10 mM of the PDE4 inhibitor roflumilast, is used as a positive control (Low Signal, 100% response). About 1 μl (about 1 ul) of compound is transferred to the compound plate using the Biomek® FX.
PBMC cells (peripheral blood mononuclear cells) are prepared from heparinised human blood (using 1% v/v Heparin Sodium 10001 U/ml Endotoxin Free, Leo Laboratories Ltd., Cashel Road, Dublin 12. Ireland, Cat No: PL0043/0149) from normal volunteers using the Accuspin™ System-Histopaque®-1077 essentially (Sigma-Aldrich Company Ltd., The Old Brickyard New Rd, Gillingham Dorset SP8 4XT). About 20 ml of blood is overlaid onto 15 ml Histopaque® in Accuspin™ tubes. The tube is then centrifuged at about 800 g for ca. 20 minutes. The cells are collected from the interface, washed by centrifugation (ca. 1300 g, ca. 10 minutes) and resuspended in RPMI1640 medium (Low endotoxin RPMI1640 medium, Cat No: 31870-025, Invitrogen Corporation Invitrogen Ltd, 3 Fountain Drive, Inchinnan Business Park, Paisley PA4 9RF, UK) containing 10% foetal calf serum, 1% L-glutamine (Invitrogen Corporation, Cat No: 25030024) and 1% penicillin/streptomycin (Invitrogen Corporation, Cat No: 15140-122). Viable cells are counted by trypan blue staining and diluted to 1×10^6 viable cells/ml. About 50 μl (about 50 ul) of diluted cells and about 75 μl (about 75 ul) of LPS (ca. 1 ng/ml final; Sigma Cat No: L-6386) are added to the compound plate, which is then incubated at 37° C., 5% CO2, for 20 hours.
The supernatant is removed and the concentrations of TNF-α are determined by electrochemiluminescence assay using the Meso Scale Discovery (MSD) technology (Meso Scale Discovery, 9238 Gaither Road, Gaithersburg, Md. 20877, USA). See the “TNF-α (TNF-alpha) MSD Assay” described below for typical details.
Using the Biomek FX, 25 μl (25 ul) of MSD Human Serum Cytokine Assay Diluent (Meso Scale Discovery, 9238 Gaither Road, Gaithersburg, Md. 20877) is added to a 96-well High-Bind MSD plate pre-coated with anti-hTNF alpha capture antibody (MA6000) and then incubated for 24 hours at 4° C. to prevent non-specific binding. […]
For the PBMC assay, about 20 μl (ul) of diluted sulfo-TAG antibody (ca. 1 μg/ml final) is added to each well, and the plates/wells are shaken at room temperature for 2 hours. Finally, about 90 μl (ul) of MSD Read Buffer P (diluted to 2.5 times with distilled water) is added and the plates are read on a MSD Sector 6000.
Data analysis is performed with ActivityBase/XC50 module (ID Business Solutions Ltd., 2 Occam Court, Surrey Research Park, Guildford, Surrey, GU2 7QB UK). Data are normalized and expressed as % inhibition using the formula 100*((U-C1)/(C2-C1)) where U is the unknown value, C1 is the average of the high signal (0%) control wells (column 10), and C2 is the average of the low signal (100%) control wells (column 11). […]

Compound	IC50 [nM]
CCc1nc2c(cnn2CC)c(NC2CCOCC2)c1CNC(=O)c1ccc(-c2ccc(C(=O)NCc3c(CC)nc4c(cnn4CC)c3NC3CCOCC3)cc2)cc1 [Example 23, N,N′-bis{[1,6-diethyl-4-(tetrahydro-2H-pyran-4-ylamino)-1H-pyrazolo[3,4-b]pyridin-5-yl]methyl}-4,4′-biphenyldicarboxamide]	~0.126
CCn1ncc2c(NC3CCOCC3)c(CNC(=O)c3cccc(-c4cccc(C(=O)NCc5c(C)nc6c(cnn6CC)c5NC5CCOCC5)c4)c3)c(C)nc21 [Example 29, N,N′-bis{[1-ethyl-6-methyl-4-(tetrahydro-2H-pyran-4-ylamino)-1H-pyrazolo[3,4-b]pyridin-5-yl]methyl}-3,3′-biphenyldicarboxamide]	~0.794
CCc1nc2c(cnn2CC)c(NC2CCOCC2)c1CNC(=O)c1ccc(C(=O)NCc2c(CC)nc3c(cnn3CC)c2NC2CCOCC2)o1 [Example 35, N,N′-bis{[1,6-diethyl-4-(tetrahydro-2H-pyran-4-ylamino)-1H-pyrazolo[3,4-b]pyridin-5-yl]methyl}-2,5furandicarboxamide]	~0.1
